Measurements reported in ChEMBL document CHEMBL1240344, “Phage-encoded combinatorial chemical libraries based on bicyclic peptides” (Nat Chem Biol, 2009).
Active and inactive are the calls of the source. No cut-off for these calls is given here. Residues, ends and D or L forms follow the SMILES beside them.

Columns and labels:
[1] = target: Plasma kallikrein (Mus musculus) (UniProt P26262); test: Inhibition of mouse plasma kallikrein at 10 uM using Z-Phe-Arg-AMC substrate after 30 mins by spectrophotometric assay; type: cell-free
[2] = target: Coagulation factor XI (Homo sapiens) (UniProt P03951); test: Inhibition of human factor 11a at 10 uM using Z-Phe-Arg-AMC substrate after 30 mins by spectrophotometric assay
[3] = target: Prothrombin (Homo sapiens) (UniProt P00734); test: Inhibition of human thrombin at 10 uM using Boc-Phe-Ser-Arg-AMC substrate after 30 mins by spectrophotometric assay
Plasma kallikrein = Plasma kallikrein (Homo sapiens, UniProt P03952); test: Inhibition of human plasma kallikrein using Z-Phe-Arg-AMC substrate after 30 mins by spectrophotometric assay
[4] = target: Urokinase-type plasminogen activator (Homo sapiens, UniProt P00749); test: Binding affinity to urokinase-type plasminogen activator

Chain of Plasma kallikrein (P03952 20-390 limits assumed): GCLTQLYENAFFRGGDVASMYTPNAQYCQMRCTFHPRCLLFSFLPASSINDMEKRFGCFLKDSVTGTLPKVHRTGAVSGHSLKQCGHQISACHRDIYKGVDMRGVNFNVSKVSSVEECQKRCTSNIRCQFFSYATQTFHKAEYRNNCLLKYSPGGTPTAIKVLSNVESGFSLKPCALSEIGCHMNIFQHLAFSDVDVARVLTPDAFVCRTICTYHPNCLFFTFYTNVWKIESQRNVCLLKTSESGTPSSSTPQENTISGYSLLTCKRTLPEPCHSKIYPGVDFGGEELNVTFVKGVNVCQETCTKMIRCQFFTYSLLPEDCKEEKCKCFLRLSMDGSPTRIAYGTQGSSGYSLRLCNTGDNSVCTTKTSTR
Chain of Plasma kallikrein (P03952 391-638 limits assumed): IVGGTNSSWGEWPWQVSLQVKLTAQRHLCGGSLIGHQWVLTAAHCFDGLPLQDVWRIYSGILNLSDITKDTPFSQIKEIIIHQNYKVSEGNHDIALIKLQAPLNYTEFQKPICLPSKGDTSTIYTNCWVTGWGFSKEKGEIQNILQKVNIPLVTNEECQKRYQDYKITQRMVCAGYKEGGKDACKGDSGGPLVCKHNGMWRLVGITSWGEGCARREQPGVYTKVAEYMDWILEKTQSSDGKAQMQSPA
Chain of Plasma kallikrein (Mus musculus) (P26262 20-390 limits assumed): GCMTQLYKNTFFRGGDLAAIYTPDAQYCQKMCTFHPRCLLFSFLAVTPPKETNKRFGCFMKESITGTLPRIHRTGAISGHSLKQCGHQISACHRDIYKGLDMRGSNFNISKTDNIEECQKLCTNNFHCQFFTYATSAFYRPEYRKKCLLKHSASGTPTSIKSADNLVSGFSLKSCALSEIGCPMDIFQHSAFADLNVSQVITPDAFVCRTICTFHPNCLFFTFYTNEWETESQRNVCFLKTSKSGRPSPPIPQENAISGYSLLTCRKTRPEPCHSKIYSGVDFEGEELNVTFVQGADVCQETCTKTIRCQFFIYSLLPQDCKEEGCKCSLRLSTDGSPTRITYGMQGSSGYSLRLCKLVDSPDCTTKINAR
Chain of Plasma kallikrein (Mus musculus) (P26262 391-638 limits assumed): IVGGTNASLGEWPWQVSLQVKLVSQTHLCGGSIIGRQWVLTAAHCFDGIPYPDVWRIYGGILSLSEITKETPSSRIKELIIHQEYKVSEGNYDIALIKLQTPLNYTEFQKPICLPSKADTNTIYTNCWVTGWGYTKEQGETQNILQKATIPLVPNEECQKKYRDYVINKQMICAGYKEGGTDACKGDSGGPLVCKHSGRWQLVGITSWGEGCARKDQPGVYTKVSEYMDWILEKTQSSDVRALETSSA
Chain of Coagulation factor XI (Homo sapiens) (P03951 19-387 limits assumed): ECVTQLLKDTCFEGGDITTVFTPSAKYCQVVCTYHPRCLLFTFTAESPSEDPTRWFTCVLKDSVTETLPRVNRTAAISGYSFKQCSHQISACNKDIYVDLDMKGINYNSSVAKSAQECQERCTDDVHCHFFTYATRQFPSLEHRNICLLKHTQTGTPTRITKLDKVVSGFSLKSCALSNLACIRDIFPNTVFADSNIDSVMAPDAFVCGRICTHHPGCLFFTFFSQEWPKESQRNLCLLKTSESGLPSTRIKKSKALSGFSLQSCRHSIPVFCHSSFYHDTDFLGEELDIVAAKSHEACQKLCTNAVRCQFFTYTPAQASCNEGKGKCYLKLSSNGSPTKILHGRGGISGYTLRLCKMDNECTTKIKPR
Chain of Coagulation factor XI (Homo sapiens) (P03951 388-625 limits assumed): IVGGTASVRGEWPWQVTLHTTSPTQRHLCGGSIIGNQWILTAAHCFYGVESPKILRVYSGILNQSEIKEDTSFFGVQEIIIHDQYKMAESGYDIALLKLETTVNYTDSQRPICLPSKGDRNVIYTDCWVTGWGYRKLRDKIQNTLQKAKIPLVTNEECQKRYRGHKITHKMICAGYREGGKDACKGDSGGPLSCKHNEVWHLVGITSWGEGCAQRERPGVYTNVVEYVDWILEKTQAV

| inhibition [1] | inhibition [2] | inhibition [3] | IC50 (Plasma kallikrein) [µM] | Ki [4] [µM] | Structure (SMILES) |
| --- | --- | --- | --- | --- | --- |
| inactive | inactive | inactive |  |  | CSCC[C@H](NC(=O)[C@H](CC(C)C)NC(=O)[C@H](CC(=O)O)NC(=O)[C@H](CCC(=O)O)NC(=O)[C@H](Cc1ccc(O)cc1)NC(=O)[C@H](CS)NC(=O)[C@H](C)NC(=O)[C@@H](NC(=O)[C@H](CCCNC(=N)N)NC(=O)[C@H](Cc1c[nH]c2ccccc12)NC(=O)[C@@H]1CCCN1C(=O)[C@H](C)NC(=O)[C@H](CS)NC(=O)[C@H](C)N)[C@@H](C)O)C(=O)N[C@@H](Cc1c[nH]c2ccccc12)C(=O)N[C@@H](CS)C(=O)NCC(N)=O (H-ACAPWRTACYEDLMWCG-NH2) |
| inactive | inactive | inactive | > 10 |  | CC(C)C[C@H](NC(=O)[C@@H]1CCCN1C(=O)[C@H](CS)NC(=O)[C@H](CC(N)=O)NC(=O)[C@H](CCCNC(=N)N)NC(=O)[C@H](Cc1ccccc1)NC(=O)[C@H](CCCNC(=N)N)NC(=O)[C@H](CC(=O)O)NC(=O)[C@H](CO)NC(=O)[C@H](CS)NC(=O)[C@H](C)N)C(=O)N[C@@H](Cc1c[nH]c2ccccc12)C(=O)N[C@@H](CO)C(=O)NCC(=O)N[C@H](C(=O)N[C@@H](CS)C(=O)NCC(N)=O)[C@@H](C)O (H-ACSDRFRNCPLWSGTCG-NH2) |
| inactive | inactive | inactive | > 10 |  | CC(C)C[C@H](NC(=O)[C@H](C)NC(=O)[C@H](CCC(=O)O)NC(=O)[C@H](CC(=O)O)NC(=O)[C@H](C)NC(=O)[C@@H]1CCCN1C(=O)[C@H](CS)NC(=O)[C@H](CC(N)=O)NC(=O)[C@H](CCCNC(=N)N)NC(=O)[C@H](Cc1ccccc1)NC(=O)[C@H](CCCNC(=N)N)NC(=O)[C@H](CC(=O)O)NC(=O)[C@H](CO)NC(=O)[C@H](CS)NC(=O)[C@H](C)N)C(=O)N[C@@H](CS)C(=O)NCC(N)=O (H-ACSDRFRNCPADEALCG-NH2) |
|  |  |  |  | 6.7 | CSCC[C@H](NC(=O)[C@H](CCCNC(=N)N)NC(=O)[C@H](Cc1cnc[nH]1)NC(=O)[C@H](CC(N)=O)NC(=O)[C@H](CCC(=O)O)NC(=O)[C@H](CC(C)C)NC(=O)CNC(=O)[C@H](CCCNC(=N)N)NC(=O)[C@H](Cc1c[nH]c2ccccc12)NC(=O)[C@H](CO)NC(=O)[C@@H](N)CS)C(=O)N[C@@H](CS)C(=O)O |
| inactive | inactive | inactive | 7.18 |  | CC[C@H](C)[C@H](NC(=O)[C@H](CCC(=O)O)NC(=O)[C@@H](NC(=O)[C@@H]1CCCN1C(=O)[C@H](CS)NC(=O)[C@H](Cc1ccc(O)cc1)NC(=O)[C@H](CCCNC(=N)N)NC(=O)[C@H](CCCNC(=N)N)NC(=O)[C@H](CCC(=O)O)NC(=O)[C@@H](NC(=O)[C@H](CO)NC(=O)[C@H](CS)NC(=O)[C@H](C)N)[C@@H](C)O)[C@@H](C)CC)C(=O)N[C@@H](Cc1ccccc1)C(=O)N1CCC[C@H]1C(=O)N[C@@H](CS)C(=O)NCC(N)=O (H-ACSTERRYCPIEIFPCG-NH2) |
|  |  |  |  | 0.4 | CC(C)C[C@H](NC(=O)[C@H](Cc1ccc(O)cc1)NC(=O)[C@H](CCCNC(=N)N)NC(=O)[C@H](CO)NC(=O)[C@H](Cc1ccc(O)cc1)NC(=O)[C@H](C)NC(=O)[C@@H]1CCCN1C(=O)[C@@H](N)CS)C(=O)N[C@@H](CC(=O)O)C(=O)N[C@@H](CS)C(=O)O |
| inactive | inactive | inactive |  |  | CC(C)[C@H](NC(=O)[C@H](CCCNC(=N)N)NC(=O)[C@H](CS)NC(=O)[C@H](CCCNC(=N)N)NC(=O)CNC(=O)[C@H](CCC(=O)O)NC(=O)CNC(=O)[C@@H](NC(=O)CNC(=O)[C@H](CS)NC(=O)[C@@H](C)N)[C@H](C)O)C(=O)N[C@@H](CC(N)=O)C(=O)N[C@@H](Cc1c[nH]c2ccccc12)C(=O)N[C@H](C(=O)N1CCC[C@H]1C(=O)N[C@@H](CS)C(=O)NCC(N)=O)[C@@H](C)O |
